Measured values published in US7414041B2 (Trustees Of Tufts College, priority 1991, dated 2008).
pIC50: −log10 of the molar value. Read-outs that look alike come from different tables or passages of the source.

Experiments:
E. faecalis 211 (Tet M) = assay: MIC/MLC chart, analog with and without doxycycline; format: cell-based;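 also: broth checkerboard of two-fold drug dilutions, alone and mixed with doxycycline, bacteria near 5×10^5 cells/ml, 18 h incubation at 37 °C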
[1] = molecular target: T1, TET proteins responsible for tetracycline efflux (Class B tetracycline resistance determinant, strain D1-209) (Escherichia coli, UniProt P02980); assay: biochemical; parameters: species or system E. coli; settings: uptake at 2.5 minutes, about 4 μM 3H-tetracycline; read-out: IC50
T1 construct: Everted vesicles, to which the TET proteins responsible for tetracycline efflux are attached; endogenous in cells; host or cells: E. coli strain D1-209 (everted membrane vesicles)

S. aureus 450 = assay: MIC of tetracycline susceptible strains, C5 esters; format: cell-based; settings: S. aureus 450, alone
E. faecalis 158 (Tet L) = assay: MIC/MLC chart, analog with and without doxycycline; format: cell-based
S. aureus 4250 (Tet K) = assay: MIC/MLC chart, analog with and without doxycycline; format: cell-based
E. coli ML308 = assay: MIC of tetracycline susceptible strains, C5 esters; format: cell-based; settings: E. coli ML308, alone
E. faecalis ATCC 9790 = assay: MIC of tetracycline susceptible strains, C5 esters; format: cell-based; settings: E. faecalis ATCC 9790, alone
E. coli D1-299 (Tet A) = format: cell-based;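 also: E. coli at roughly 5×10^5 cells/ml in L broth, analog and doxycycline alone or mixed in two-fold dilutions from 50 to under 1 µg/ml, 18 h at 37 °C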

T1 sequence (P02980 whole entry): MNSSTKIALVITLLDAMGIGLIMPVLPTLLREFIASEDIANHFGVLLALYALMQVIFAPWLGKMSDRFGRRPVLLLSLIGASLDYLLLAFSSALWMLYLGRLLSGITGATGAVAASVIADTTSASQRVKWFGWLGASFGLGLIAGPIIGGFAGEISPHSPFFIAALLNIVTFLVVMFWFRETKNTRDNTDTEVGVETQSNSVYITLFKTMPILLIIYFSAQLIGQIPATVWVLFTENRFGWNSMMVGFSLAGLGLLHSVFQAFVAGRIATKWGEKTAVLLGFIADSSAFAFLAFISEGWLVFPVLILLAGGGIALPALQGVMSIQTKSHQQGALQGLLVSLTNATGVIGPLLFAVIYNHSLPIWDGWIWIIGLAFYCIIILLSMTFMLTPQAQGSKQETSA

13-propylthio-5-proprionate-6-deoxy-tetracycline [Cmpd 8]
.3 µg/mL: MIC (S. aureus 450)
+: growth / no growth (MIC) / killing (MLC) symbol (E. faecalis 211 (Tet M); analog 1.56 + doxy 1.55 μg/ml) | growth / no growth (MIC) / killing (MLC) symbol (E. faecalis 211 (Tet M); analog 1.56 + doxy 3.1 μg/ml) | growth / no growth (MIC) / killing (MLC) symbol (E. faecalis 211 (Tet M); analog 1.56 + doxy 6.2 μg/ml) | growth / no growth (MIC) / killing (MLC) symbol (E. faecalis 211 (Tet M); analog .195 + doxy 1.56 μg/ml) | growth / no growth (MIC) / killing (MLC) symbol (E. faecalis 211 (Tet M); analog .195 + doxy 3.12 μg/ml) | growth / no growth (MIC) / killing (MLC) symbol (E. faecalis 211 (Tet M); analog .195 + doxy 6.25 μg/ml) | growth / no growth (MIC) / killing (MLC) symbol (E. faecalis 211 (Tet M); analog .195 + doxy 12.5 μg/ml) | growth / no growth (MIC) / killing (MLC) symbol (E. faecalis 211 (Tet M); analog .39 + doxy 1.56 μg/ml) | growth / no growth (MIC) / killing (MLC) symbol (E. faecalis 211 (Tet M); analog .39 + doxy 3.12 μg/ml) | growth / no growth (MIC) / killing (MLC) symbol (E. faecalis 211 (Tet M); analog .39 + doxy 6.25 μg/ml) | growth / no growth (MIC) / killing (MLC) symbol (E. faecalis 211 (Tet M); analog .39 + doxy 12.5 μg/ml) | growth / no growth (MIC) / killing (MLC) symbol (E. faecalis 211 (Tet M); analog .78 + doxy 1.56 μg/ml) | growth / no growth (MIC) / killing (MLC) symbol (E. faecalis 211 (Tet M); analog .78 + doxy 3.12 μg/ml) | growth / no growth (MIC) / killing (MLC) symbol (E. faecalis 211 (Tet M); analog .78 + doxy 6.23 μg/ml) | growth / no growth (MIC) / killing (MLC) symbol (E. faecalis 211 (Tet M); analog alone 1.56 μg/ml) | growth / no growth (MIC) / killing (MLC) symbol (E. faecalis 211 (Tet M); analog alone .195 μg/ml) | growth / no growth (MIC) / killing (MLC) symbol (E. faecalis 211 (Tet M); analog alone .39 μg/ml) | growth / no growth (MIC) / killing (MLC) symbol (E. faecalis 211 (Tet M); analog alone .78 μg/ml) | growth / no growth (MIC) / killing (MLC) symbol (E. faecalis 158 (Tet L); analog .195 + doxy 1.56 μg/ml) | growth / no growth (MIC) / killing (MLC) symbol (E. faecalis 158 (Tet L); analog .195 + doxy 3.12 μg/ml) | growth / no growth (MIC) / killing (MLC) symbol (E. faecalis 158 (Tet L); analog alone .195 μg/ml) | growth / no growth (MIC) / killing (MLC) symbol (E. faecalis 158 (Tet L); analog alone .39 μg/ml) | growth / no growth (MIC) / killing (MLC) symbol (E. faecalis 158 (Tet L); analog alone .78 μg/ml) | growth / no growth (MIC) / killing (MLC) symbol (S. aureus 4250 (Tet K); analog .195 + doxy 1.56 μg/ml) | growth / no growth (MIC) / killing (MLC) symbol (S. aureus 4250 (Tet K); analog alone .195 μg/ml) | growth / no growth (MIC) / killing (MLC) symbol (E. coli D1-299 (Tet A); analog 1.56 + doxy 1.55 μg/ml) | growth / no growth (MIC) / killing (MLC) symbol (E. coli D1-299 (Tet A); analog 1.56 + doxy 3.1 μg/ml) | growth / no growth (MIC) / killing (MLC) symbol (E. coli D1-299 (Tet A); analog 1.56 + doxy 6.2 μg/ml) | growth / no growth (MIC) / killing (MLC) symbol (E. coli D1-299 (Tet A); analog 3.12 + doxy 1.53 μg/ml) | growth / no growth (MIC) / killing (MLC) symbol (E. coli D1-299 (Tet A); analog 3.12 + doxy 3.05 μg/ml) | growth / no growth (MIC) / killing (MLC) symbol (E. coli D1-299 (Tet A); analog 3.12 + doxy 6.1 μg/ml) | growth / no growth (MIC) / killing (MLC) symbol (E. coli D1-299 (Tet A); analog 6.25 + doxy 5.9 μg/ml) | growth / no growth (MIC) / killing (MLC) symbol (E. coli D1-299 (Tet A); analog 6.25 + doxy 3.0. μg/ml) | growth / no growth (MIC) / killing (MLC) symbol (E. coli D1-299 (Tet A); analog 6.25 + doxy […]) | growth / no growth (MIC) / killing (MLC) symbol (E. coli D1-299 (Tet A); analog 12.5 + doxy 2.8 μg/ml) | growth / no growth (MIC) / killing (MLC) symbol (E. coli D1-299 (Tet A); analog 12.5 + doxy 5.5 μg/ml) | growth / no growth (MIC) / killing (MLC) symbol (E. coli D1-299 (Tet A); analog 12.5 + doxy […]) | growth / no growth (MIC) / killing (MLC) symbol (E. coli D1-299 (Tet A); analog 25 + doxy 2.4 μg/ml) | growth / no growth (MIC) / killing (MLC) symbol (E. coli D1-299 (Tet A); analog 25 + doxy 4.7 μg/ml) | growth / no growth (MIC) / killing (MLC) symbol (E. coli D1-299 (Tet A); analog 25 + doxy […]) | growth / no growth (MIC) / killing (MLC) symbol (E. coli D1-299 (Tet A); analog 50 + doxy 1.56 μg/ml) | growth / no growth (MIC) / killing (MLC) symbol (E. coli D1-299 (Tet A); analog 50 + doxy 3.12 μg/ml) | growth / no growth (MIC) / killing (MLC) symbol (E. coli D1-299 (Tet A); analog 50 + doxy .78 μg/ml) | growth / no growth (MIC) / killing (MLC) symbol (E. coli D1-299 (Tet A); analog .195 + doxy 1.56 μg/ml) | growth / no growth (MIC) / killing (MLC) symbol (E. coli D1-299 (Tet A); analog .195 + doxy 3.12 μg/ml) | growth / no growth (MIC) / killing (MLC) symbol (E. coli D1-299 (Tet A); analog .195 + doxy 6.25 μg/ml) | growth / no growth (MIC) / killing (MLC) symbol (E. coli D1-299 (Tet A); analog .195 + doxy 12.5 μg/ml) | growth / no growth (MIC) / killing (MLC) symbol (E. coli D1-299 (Tet A); analog .39 + doxy 1.56 μg/ml) | growth / no growth (MIC) / killing (MLC) symbol (E. coli D1-299 (Tet A); analog .39 + doxy 3.12 μg/ml) | growth / no growth (MIC) / killing (MLC) symbol (E. coli D1-299 (Tet A); analog .39 + doxy 6.25 μg/ml) | growth / no growth (MIC) / killing (MLC) symbol (E. coli D1-299 (Tet A); analog .39 + doxy 12.5 μg/ml) | growth / no growth (MIC) / killing (MLC) symbol (E. coli D1-299 (Tet A); analog .78 + doxy 1.56 μg/ml) | growth / no growth (MIC) / killing (MLC) symbol (E. coli D1-299 (Tet A); analog .78 + doxy 3.12 μg/ml) | growth / no growth (MIC) / killing (MLC) symbol (E. coli D1-299 (Tet A); analog .78 + doxy 6.23 μg/ml) | growth / no growth (MIC) / killing (MLC) symbol (E. coli D1-299 (Tet A); analog .78 + doxy 12.4 μg/ml) | growth / no growth (MIC) / killing (MLC) symbol (E. coli D1-299 (Tet A); analog alone 1.56 μg/ml) | growth / no growth (MIC) / killing (MLC) symbol (E. coli D1-299 (Tet A); analog alone 3.12 μg/ml) | growth / no growth (MIC) / killing (MLC) symbol (E. coli D1-299 (Tet A); analog alone 6.25 μg/ml) | growth / no growth (MIC) / killing (MLC) symbol (E. coli D1-299 (Tet A); analog alone 12.5 μg/ml) | growth / no growth (MIC) / killing (MLC) symbol (E. coli D1-299 (Tet A); analog alone 25.0 μg/ml) | growth / no growth (MIC) / killing (MLC) symbol (E. coli D1-299 (Tet A); analog alone 50.00 μg/ml) | growth / no growth (MIC) / killing (MLC) symbol (E. coli D1-299 (Tet A); analog alone .195 μg/ml) | growth / no growth (MIC) / killing (MLC) symbol (E. coli D1-299 (Tet A); analog alone .39 μg/ml) | growth / no growth (MIC) / killing (MLC) symbol (E. coli D1-299 (Tet A); analog alone .78 μg/ml)
◯: growth / no growth (MIC) / killing (MLC) symbol (E. faecalis 211 (Tet M); analog 3.12 + doxy 1.53 μg/ml) | growth / no growth (MIC) / killing (MLC) symbol (E. faecalis 211 (Tet M); analog 3.12 + doxy 3.05 μg/ml) | growth / no growth (MIC) / killing (MLC) symbol (E. faecalis 211 (Tet M); analog alone 3.12 μg/ml) | growth / no growth (MIC) / killing (MLC) symbol (E. faecalis 158 (Tet L); analog .39 + doxy 1.56 μg/ml) | growth / no growth (MIC) / killing (MLC) symbol (E. faecalis 158 (Tet L); analog .39 + doxy 3.12 μg/ml) | growth / no growth (MIC) / killing (MLC) symbol (S. aureus 4250 (Tet K); analog .195 + doxy 3.12 μg/ml) | growth / no growth (MIC) / killing (MLC) symbol (E. coli D1-299 (Tet A); analog 1.56 + doxy 12.3 μg/ml)
5.85: pIC50 [1]
20 µg/mL: MIC (E. coli ML308)
2.5 µg/mL: MIC (E. faecalis ATCC 9790)
